We go through 11 molecules from patent US20230392124A1, “METHODS AND COMPOSITIONS FOR IMPROVING SC-BETA CELLS OR ENHANCING THEIR UTILITY” (Washington University, priority 2020, published 2023).

Format in all cases: cell-based, human
Assay [1] deals with SC beta cell differentiation. The assay can be described thus: Other modifications to the differentiation protocol, differentiation markers. The following applies: for PDX1/NKX61 co expression: treatment during S4. An excerpt: (§1) Other Modifications with Benefits (See e.g., FIG. 90-FIG. 95). • Y and Blebbistatin treatment during stage 4 of differentiation • Reducing volume of media • Wnt modification—IWP2 treatment during s1d2-d4 • bFGF treatment during stage 1 • Betacellulin removal during S5 • Other compound treatments during Stage 6

The subject of another assay is INS-mCherry+ cells. Nature of the assay: mCherry/INS reporter cell line, β cell health. The source says:
Stage 6 INS+/−mcherry SC-islets can be single cell dispersed, sorted for INS+ SC-β cells, and treated with a SERCA pump inhibitor (thapsigargin) to reduce insulin secretion for high throughput drug screening.

The next assay concerns WS4^unedit stage 6 cells. The assay can be described thus: ER stress study: thapsigargin treatment, static GSIS, real-time PCR and western blot. Here is the method: (§2) For static GSIS, approximately 30 stage 6 clusters were placed in transwells (Corning), equilibrated for 1 hr in 2 mM glucose KRB (TABLE 6), and challenged with sequential 1-hr 2 and 20 mM KRB treatments. For dynamic GSIS, clusters were loaded into a cell chamber, perfused with buffer at 100 μL/min, and equilibrated in 2 mM glucose KRB for 90 min. The samples were then challenged for 12 min at 2 mM, 24 min at 20 mM, and 12 min at 2 mM glucose KRB, collecting effluent every 2-4 min. Human insulin was quantified with ELISA and data normalized to cell counts from Vi-Cell XR or DNA quantification using Quant-iT Picogreen dsDNA assay kit (Invitrogen).
(§3) Detection of phosphorylated and total eIF2α as performed by lysing cells in 1% Triton buffer (20 mM HEPES, pH 7.5, 150 mM NaCl, 1% Triton X-100, 10% glycerol (Sigma), 1 mM EDTA, 10 mM tetrasodium pyrophosphate (Sigma), 17.5 mM β-glycerophosphate (Sigma), PhosSTOP (Roche), and complete protease inhibitor cocktail (Roche). Detection of all other proteins was done by lysing cells in M-PER Mammalian Protein Extraction Reagent (Thermo Scientific) supplemented with cOmplete protease inhibitor cocktail. After 30 min incubation on ice, samples were centrifuged, supernatants collected, and protein-equivalent samples were loaded onto 4-20% Mini-PROTEAN TGX Precast Protein Gels (Bio-Rad) and transferred to an Immobilon-P PVDF Membrane (Millipore). The membrane was treated with 5% skimmed milk for 1 hr at RT and probed with the primary antibodies. The antibodies were detected using HRP-linked secondary antibodies. The density of each band was quantified using Image Lab software (Bio-Rad).
(§4) RNA was extracted with the RNeasy Mini Kit (Qiagen) with DNase treatment (Qiagen), cDNA was synthesized with the High Capacity cDNA Reverse Transcriptase Kit (Applied Biosystems using a thermocycler (Applied Biosystems), real-time PCR reactions were generated with PowerUp SYBR Green Master Mix (Applied Biosystems) using a StepOnePlus (Applied Biosystems), and data analyzed using ΔΔCt methodology. TBP and GUSB were used as normalization genes. Primer sequences used can be found in TABLE 8.
(§5) Cells were incubated for 48 hr with 10 μM Thapsigargin (EMD Chemicals), 30 mM glucose, or a cytokine mix including 500 ng/mL IFNγ (R&D Systems), 500 ng/mL TNFα (R&D Systems), and 100 ng/mL […] (R&D Systems).
In general terms: In qPCR the cycle at which signal appears reflects the starting amount.

The next assay has as its system WS4^corr stage 6 cells. Described as above. Here is the method: as §2, §3, §4, §5
The subject of assay [2] is stem cells in SC-β cell protocol. Nature of the assay: Cytoskeletal modulating compounds added for first 24 hours of stages of the SC-β cell protocol, gene expression. The following applies: added during stage 1, read at S2d1. The procedure: Small molecules that influence the state of the cytoskeleton were added for first 24 hours of various stages of the SC-β cell protocol.

The next assay deals with SC-beta cells. The assay can be described thus: Compound treatments during Stage 6 (s6d1-7), insulin secretion. The following applies: treatment during s6d1-7.
Source text: as §1

For the next assay, the system named is SC-β cells. Nature of the assay: Refining stage 6 ESFM: components on top of base media, GSIS stimulation index. The following applies: in ESFM, 20 mM; by increasing insulin secretion at low glucose. Here is the method:
Base Media • MCDB131 • 10% BSA • Glutamax • P/S • Glucose • Zn 10 μM
Treatment on Top of Base Media • 1-Trace A 1:1000 • 2-Trace B 1:1000 • 3-Trace C 1:1000 • 4-Heparin 10 μg/mL • 5-NEAA 1:100 • 6-Vitamin C 250 μM • 7-NaHCO320 mM • 8-Defined Lipid Mixture 1:1000 • 9-Defined Lipid Mixture 1:1000 • 10-Base • 11-S6 w/water dilution 1:100 • 12-S6 no water dilution
All samples had same total dilution of 1:100 with water to maintain same osmolarity amongst samples.

A further assay has as its system Stage 6 SC-Beta cells. Nature of the assay: Compounds to improve SC-beta cells: 7 day culture, qPCR of 10 genes. The following applies: 1 μg/mL, 6 days, qPCR vs Control 1. Here is the method: Cultured 14 wells of 6-well plates containing Stage 6 SC-Beta cells differentiated in suspension by Punn. Two wells served as controls.
Each well was cultured in one of the following for 7 days*: • […] IFN Gamma • […] TNF Alpha • […] IL-1 Beta • Mixture of the above cytokines • 10% FBS • 10, 1, and 0.1 μM A83-01 • 10, 1, and 0.1 μM Alk5i Ill • 1 μg/mL Lefty A (*cultured for 6 days)
Ran qPCR and compared everything to Control 1 (had smallest Ct SD).

The mark [3] stands for this setting: 10 μM Thapsigargin, 48 hr, static GSIS, WS4^corr stage 6 cells.

For the molecule `Cc1ccc2nc(NC(=O)CSc3nc4c(c(=O)n3-c3ccccc3)SCC4)sc2c1` [IWP2], the “PDX1 yield at S3” value in assay [1] (during Sd2-d4) is “promotes”.

Take `C/C=C(/C)C(=O)O[C@H]1C(C)=C2[C@H]([C@@H]1OC(=O)CCCCCCC)[C@@](C)(OC(C)=O)C[C@H](OC(=O)CCC)[C@@]1(O)[C@H]2OC(=O)[C@@]1(C)O` [thapsigargin]: in the assay on INS-mCherry+ cells, the De-differentiation signatures result is on record as “De-differentiation signatures occur” and the “mCherry fluorescence (insulin expression)” value is “reduces mCherry fluorescence”. Further, the insulin secretion result with WS4^unedit stage 6 cells (10 μM Thapsigargin, 48 hr, static GSIS, WS4^unedit stage 6 cells) is “not affected”. The known stress markers entry with WS4^unedit stage 6 cells (real-time PCR and western blot, bulk stage 6 population, WS4^unedit cells) was “increasing known stress markers”. Further, in the assay with WS4^corr stage 6 cells (setting [3]), the “decrease of insulin secretion” value turned out to be 3.9±0.7 × and the glucose-responsiveness entry is “eliminating glucose-responsiveness”. Moreover, in the assay on WS4^corr stage 6 cells (real-time PCR and western blot, bulk stage 6 population, WS4^corr cells), the known stress markers entry is “increasing known stress markers”.

Consider `C[C@@H](N)[C@H]1CC[C@H](C(=O)Nc2ccncc2)CC1` [Y], for which the PDX1/NKX61 co expression result in assay [1] is “Improves”.

Turning to `CCCCCCCCCCCCC/C=C/[C@@H](O)[C@@H](N)COP(=O)(O)O` [s1p], the “expression of the mesoderm marker Brachyury T” value in assay [2] was “greatly increases”.

Take `C=C1[C@@H](C)[C@H]2[C@H](Cc3ccccc3)NC(=O)[C@]23[C@H](OC(C)=O)/C=C/[C@@](C)(O)C(=O)[C@@H](C)C/C=C/[C@H]3[C@@H]1O` [CytoD]: the insulin secretion result in the assay on SC-beta cells is on record as “increases”.

Take `Cc1ccc2c(c1)C(=O)C1(O)CCN(c3ccccc3)C1=N2` (stereo not drawn) [Blebbistatin]: the PDX1/NKX61 co expression entry in assay [1] is given as “Improves”.

For the molecule `OC[C@H]1OC(O)[C@H](O)[C@@H](O)[C@@H]1O` (stereo partly drawn) [High Glucoses], the insulin secretion entry with SC-beta cells is “increases”.

Turning to “bFGF: growth factor added during stage 1”, the differentiation entry in assay [1] (treatment during Stage 1) was “improves differentiation”.

Take `O=C([O-])O.[Na+]` [NAHCO3]: the “stimulation index (GSIS)” value in the assay on SC-β cells was “reduces stimulation index”.

B1: Lefty A: factor added to stage 6 culture at 1 μg/mL (protein, UniProt O00292 77-366, looked up)
Left-right determination …: RFSQSFREVAGRFLASEASTHLLVFGMEQRLPPNSELVQAVLRLFQEPVPKAALHRHGRLSPRSAQARVTVEWLRVRDDGSNRTSLIDSRLVSVHESGWKAFDVTEAVNFWQQLSRPRQPLLLQVSVQREHLGPLASGAHKLVRFASQGAPAGLGEPQLELHTLDLRDYGAQGDCDPEAPMTEGTRCCRQEMYIDLQGMKWAKNWVLEPPGFLAYECVGTCQQPPEALAFNWPFLGPRQCIASETASLPMIVSIKEGGRTRPQVVSLPNMRVQKCSCASDGALVPRRLQP
B1: in the assay with Stage 6 SC-Beta cells, the NKX6-1 expression result is on record as “slightly decreased” and the “genes with increased expression (IAPP, SIX2, CHGA, SIX3, G6PC2, MAF B)” value is listed as 6/10.

B2: BC: Betacellulin, stage 5 factor (protein, UniProt P35070 32-111, looked up)
Betacellulin: DGNSTRSPETNGLLCGDPEENCAATTTQSKRKGHFSRCPKQYKHYCIKGRCRFVVAEQTPSCVCDEGYIGARCERVDLFY
modifications: Betacellulin
notes: Betacellulin, stage 5 factor
B2: in assay [1] (removal during S5), the “requirement for Beta cell induction” value is recorded as “not required”.
